Results: ChEMBL document CHEMBL1129874, “A SHORT AND EFFICIENT SYNTHESIS OF ZAMIFENACIN A MUSCARINIC M3 RECEPTOR ANTAGONIST” (Bioorg Med Chem Lett, 1997)
Activity calls are given as the source filed them.

Assays:
Homo sapiens [1] = species on record: Homo sapiens; test: Compound was tested for the inhibition of the colonic motility in humans; Active; assay type: functional, organism-based
[2] = biological target: T1, Muscarinic acetylcholine receptor M2 (Homo sapiens) (UniProt P08172); test: Evaluated for the in vitro antagonistic activity against muscarinic M2 receptor; Active; assay type: functional
T1 sequence (whole entry): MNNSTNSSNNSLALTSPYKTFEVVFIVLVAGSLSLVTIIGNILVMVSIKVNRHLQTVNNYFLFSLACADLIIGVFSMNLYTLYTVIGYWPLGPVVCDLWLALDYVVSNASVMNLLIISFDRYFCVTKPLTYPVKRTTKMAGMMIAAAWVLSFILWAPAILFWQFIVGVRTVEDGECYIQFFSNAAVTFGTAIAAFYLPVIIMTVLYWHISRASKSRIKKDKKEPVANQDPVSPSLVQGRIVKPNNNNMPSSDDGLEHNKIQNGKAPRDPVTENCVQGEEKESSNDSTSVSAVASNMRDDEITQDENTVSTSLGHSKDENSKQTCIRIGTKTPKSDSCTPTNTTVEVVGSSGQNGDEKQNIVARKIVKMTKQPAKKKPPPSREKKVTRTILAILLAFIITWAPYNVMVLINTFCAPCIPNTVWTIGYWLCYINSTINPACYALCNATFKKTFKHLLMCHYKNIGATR

Canis familiaris = species on record: Canis familiaris; test: Compound was tested for the inhibition of the gastrointestinal motility in dogs; Active; assay type: functional, organism-based; conditions: Canis lupus familiaris
[3] = biological target: Muscarinic acetylcholine receptor M3 (Homo sapiens) (UniProt P20309); test: Evaluated for the in vivo antagonistic activity against muscarinic M3 receptor; Active; assay type: functional, organism-based
Homo sapiens [4] = species on record: Homo sapiens; test: Compound was tested for the inhibition of the small bowel motility in humans; Active; assay type: functional, organism-based

Measured: Activity

Chain of Muscarinic acetylcholine receptor M3 (Homo sapiens) (P20309 whole entry, looked up): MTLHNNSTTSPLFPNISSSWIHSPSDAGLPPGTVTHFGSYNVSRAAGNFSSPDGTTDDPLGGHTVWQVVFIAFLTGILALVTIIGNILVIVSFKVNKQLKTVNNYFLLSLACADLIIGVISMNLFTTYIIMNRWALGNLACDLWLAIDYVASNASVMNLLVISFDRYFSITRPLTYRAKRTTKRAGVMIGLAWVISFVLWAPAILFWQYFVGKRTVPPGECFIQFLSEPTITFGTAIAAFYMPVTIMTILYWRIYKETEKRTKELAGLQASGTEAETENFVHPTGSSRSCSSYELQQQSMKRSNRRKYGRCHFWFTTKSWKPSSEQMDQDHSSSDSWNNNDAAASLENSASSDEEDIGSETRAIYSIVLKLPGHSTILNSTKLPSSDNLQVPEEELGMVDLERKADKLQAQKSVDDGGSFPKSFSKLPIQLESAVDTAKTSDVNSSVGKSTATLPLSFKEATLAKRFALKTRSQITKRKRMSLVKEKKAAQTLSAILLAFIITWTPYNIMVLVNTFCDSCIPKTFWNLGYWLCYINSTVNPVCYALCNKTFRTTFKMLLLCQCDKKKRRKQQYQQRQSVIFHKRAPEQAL

c1ccc(C(O[C@@H]2CCCN(CCc3ccc4c(c3)OCO4)C2)c2ccccc2)cc1
active: Homo sapiens [1] | [2] | Canis familiaris | [3] | Homo sapiens [4]
